This is an account of results in ChEMBL document CHEMBL1201862, “PubChem BioAssay data set” (2004).

Calls of active or inactive are those of the source.

Data set [1] concerns the target Cytochrome P450 2C9 (Homo sapiens, UniProt P11712).
The test system of data set [2] is A-375. As to the kind of experiment: A375 melanoma cell viability reduction, dose response, counter-screen for MITF modulator project, cherry-pick samples, set 2 (AID 540335). The data set is classed as functional, cell-based. Particulars: Homo sapiens. A general note: A counterscreen serves to expose hits that act by an unwanted route or on another target.
Data set [3] concerns A-375. Nature of the data set: MITF: Counter assay: A375 proliferation Measured in Cell-Based System Using Plate Reader - 2084-03_Inhibitor_Dose_DryPowder_Activity. [Related pubchem assays (depositor defined):AID488944]. The data set is classed as functional. The following applies: Homo sapiens.
In data set [4] the test system is HeLa. As to the kind of experiment: HeLa cell cytotoxicity, dose response, cytotoxicity control for MITF activator project, CellTiter-Glo luminescence, cherry-pick samples (AID 540259). It counts as functional, cell-based. The following applies: Homo sapiens. For orientation: ATP-based viability assays read luminescence as a measure of living cells.
Data set [5] concerns the target T1, Protein skinhead-1 (Caenorhabditis elegans, UniProt P34707).
T1 sequence (P34707 whole entry): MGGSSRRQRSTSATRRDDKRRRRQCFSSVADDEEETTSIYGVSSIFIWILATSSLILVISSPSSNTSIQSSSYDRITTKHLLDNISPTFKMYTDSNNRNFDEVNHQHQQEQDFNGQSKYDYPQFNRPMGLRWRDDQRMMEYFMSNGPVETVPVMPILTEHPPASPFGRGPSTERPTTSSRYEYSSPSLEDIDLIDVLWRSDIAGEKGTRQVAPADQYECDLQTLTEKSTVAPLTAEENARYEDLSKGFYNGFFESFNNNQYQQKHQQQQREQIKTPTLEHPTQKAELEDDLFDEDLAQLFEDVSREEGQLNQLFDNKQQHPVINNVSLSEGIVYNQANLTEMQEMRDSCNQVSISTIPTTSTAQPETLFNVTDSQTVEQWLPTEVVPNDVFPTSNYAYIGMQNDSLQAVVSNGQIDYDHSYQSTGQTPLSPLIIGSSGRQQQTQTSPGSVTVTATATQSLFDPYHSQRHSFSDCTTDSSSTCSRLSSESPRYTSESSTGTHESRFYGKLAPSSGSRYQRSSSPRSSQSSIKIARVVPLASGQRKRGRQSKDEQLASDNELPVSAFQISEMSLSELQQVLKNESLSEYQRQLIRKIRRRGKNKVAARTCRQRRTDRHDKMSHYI
It counts as functional.

For data set [6], the target named is T2, Insulin-degrading enzyme (Homo sapiens, UniProt P14735).
T2 sequence (P14735 whole entry): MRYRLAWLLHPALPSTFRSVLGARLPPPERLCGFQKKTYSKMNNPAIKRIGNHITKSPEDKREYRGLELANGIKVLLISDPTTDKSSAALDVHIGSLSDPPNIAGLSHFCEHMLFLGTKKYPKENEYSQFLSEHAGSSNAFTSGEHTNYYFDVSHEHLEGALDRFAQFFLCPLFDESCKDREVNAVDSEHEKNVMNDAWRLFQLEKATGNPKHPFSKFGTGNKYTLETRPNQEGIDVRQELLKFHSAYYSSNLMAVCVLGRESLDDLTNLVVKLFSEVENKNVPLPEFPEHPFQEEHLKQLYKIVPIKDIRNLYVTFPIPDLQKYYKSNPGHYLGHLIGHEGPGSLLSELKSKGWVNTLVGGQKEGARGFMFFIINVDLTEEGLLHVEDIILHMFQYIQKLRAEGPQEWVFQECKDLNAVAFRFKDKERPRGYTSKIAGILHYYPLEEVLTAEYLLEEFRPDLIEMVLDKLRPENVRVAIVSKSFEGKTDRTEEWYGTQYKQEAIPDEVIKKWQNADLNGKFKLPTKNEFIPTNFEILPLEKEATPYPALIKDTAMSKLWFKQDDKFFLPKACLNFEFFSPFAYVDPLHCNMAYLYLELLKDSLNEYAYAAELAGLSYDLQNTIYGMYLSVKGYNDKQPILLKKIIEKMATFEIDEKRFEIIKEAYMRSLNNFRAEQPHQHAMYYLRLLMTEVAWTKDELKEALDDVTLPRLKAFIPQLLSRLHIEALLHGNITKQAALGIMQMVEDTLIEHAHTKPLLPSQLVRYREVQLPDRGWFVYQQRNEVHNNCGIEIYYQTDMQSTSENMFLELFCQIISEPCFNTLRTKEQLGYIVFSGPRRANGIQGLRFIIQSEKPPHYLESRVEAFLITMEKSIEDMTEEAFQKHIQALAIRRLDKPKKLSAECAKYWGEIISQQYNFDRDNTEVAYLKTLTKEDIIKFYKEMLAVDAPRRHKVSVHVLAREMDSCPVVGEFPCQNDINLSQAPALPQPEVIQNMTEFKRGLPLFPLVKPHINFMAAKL
Nature of the data set: activators of recombinant IDE enzyme, dose response, counter-screen for IDE activator project, biochemical, fluorescence polarization (AID 588681).

Data set [7] has as its system HEK293. As to the kind of experiment: optical interference in Abeta FP readout, dose response, artefact control for IDE activator project, biochemical, fluorescence polarization (AID 588442). It counts as functional, cell-based. Particulars: Homo sapiens. A general note: Fluorescence polarisation rises when a labelled molecule tumbles more slowly, as on binding a larger partner.

For data set [8], the system named is HEK293. As to the kind of experiment: HEK cell cytotoxicity by LDH release, dose response, cytotoxicity control for IDE activator project, fluorescence, HEK cells (AID 588440).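 Note: cytotoxicity by LDH release measuring loss of membrane integrity.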 The data set is classed as functional, cell-based. Particulars: Homo sapiens.
Data set [9] deals with Peroxisome proliferator-activated receptor gamma/Nuclear receptor coactivator 2 (Homo sapiens, UniProt P37231). It counts as functional.
Data set [10] deals with Peroxisome proliferator-activated receptor gamma/Nuclear receptor coactivator 1 (Homo sapiens, UniProt P37231). It counts as functional.
Data set [11] concerns the target T2, Insulin-degrading enzyme. As to the kind of experiment: activators of endogenous IDE in HEK cells, dose response, cell-based, fluorescence polarization (AID 588439). The data set is classed as functional.
For data set [12], the target named is Peroxisome proliferator-activated receptor gamma/Nuclear receptor coactivator 3 (Homo sapiens, UniProt P37231). The data set is classed as functional.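 Note: agonist potency for raising coactivator recruitment to the receptor.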
Data set [13] concerns Escherichia coli. Nature of the data set: microbe, parasite or virus in culture.
The target of data set [14] is T3, Rac GTPase-activating protein 1 (Homo sapiens, UniProt Q9H0H5).
T3 sequence (Q9H0H5 whole entry): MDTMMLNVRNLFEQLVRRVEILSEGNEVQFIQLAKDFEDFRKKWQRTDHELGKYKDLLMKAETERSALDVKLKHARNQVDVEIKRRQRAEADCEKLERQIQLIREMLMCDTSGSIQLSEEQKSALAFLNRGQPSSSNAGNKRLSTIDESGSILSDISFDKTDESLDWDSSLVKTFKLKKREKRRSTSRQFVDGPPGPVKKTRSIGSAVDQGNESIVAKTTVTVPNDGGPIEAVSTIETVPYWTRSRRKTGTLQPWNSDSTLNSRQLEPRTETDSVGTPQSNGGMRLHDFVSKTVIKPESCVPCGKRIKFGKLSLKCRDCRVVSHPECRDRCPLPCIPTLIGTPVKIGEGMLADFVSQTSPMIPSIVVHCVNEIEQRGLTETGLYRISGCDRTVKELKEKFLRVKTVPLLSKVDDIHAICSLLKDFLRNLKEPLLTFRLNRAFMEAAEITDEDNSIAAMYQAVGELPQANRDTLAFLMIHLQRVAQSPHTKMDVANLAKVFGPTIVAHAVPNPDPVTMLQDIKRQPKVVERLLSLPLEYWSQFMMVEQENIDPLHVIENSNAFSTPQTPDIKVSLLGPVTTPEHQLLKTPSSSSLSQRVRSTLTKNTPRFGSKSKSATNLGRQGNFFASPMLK
As to the kind of experiment: MgcRacGAP GTPase-activating activity inhibitors, confirmation, biochemical, ADP Hunter fluorescence, primary and confirmatory (AID 624330). The data set is classed as functional.

The subject of data set [15] is BJ. Nature of the data set: cytotoxicity toward BJ-TERT fibroblasts, dose response, cell-based, RAS-independent, luminescence (AID 1933). The following applies: Homo sapiens. It counts as functional.
A short description of data set [16]: cytotoxicity toward DRD oncogenic fibroblasts, dose response, cell-based, non-viral oncogenic, luminescence (AID 1934). It counts as functional. Particulars: Homo sapiens.
Data set [17] deals with BJ. Nature of the data set: cytotoxicity toward Ras-transformed BJeLR fibroblasts, dose response, cell-based, alamar blue fluorescence, cherrypicked samples (AID 2631).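 Note: confirmatory dose-response assay in RAS-dependent BJ fibroblasts engineered with TERT, LT and ST, with cytotoxicity read by fluorescence.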 It counts as functional. Particulars: Homo sapiens.
In data set [18] the test system is BJ. As to the kind of experiment: cells. Particulars: Homo sapiens. The data set is classed as functional, cell-based.
The subject of data set [19] is BJ. Nature of the data set: cytotoxicity toward BJ-TERT-LT-ST fibroblasts, dose response, cell-based, RAS-independent, luminescence (AID 1935).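 Note: BJ fibroblasts immortalized with TERT plus LT and ST oncogenes.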 It counts as functional. The following applies: Homo sapiens.
Data set [20] in a line: THP-1 cell cytotoxicity, dose response, cytotoxicity control for non-replicating M. tuberculosis project (AID 489025). It counts as functional.
Data set [21] in a line: HepG2 cell cytotoxicity, dose response, cytotoxicity control for non-replicating M. tuberculosis project (AID 489018). The data set is classed as functional. Particulars: Mycobacterium tuberculosis.
In data set [22] the target is T4, Microphthalmia-associated transcription factor (Homo sapiens, UniProt O75030).
T4 sequence (O75030 whole entry): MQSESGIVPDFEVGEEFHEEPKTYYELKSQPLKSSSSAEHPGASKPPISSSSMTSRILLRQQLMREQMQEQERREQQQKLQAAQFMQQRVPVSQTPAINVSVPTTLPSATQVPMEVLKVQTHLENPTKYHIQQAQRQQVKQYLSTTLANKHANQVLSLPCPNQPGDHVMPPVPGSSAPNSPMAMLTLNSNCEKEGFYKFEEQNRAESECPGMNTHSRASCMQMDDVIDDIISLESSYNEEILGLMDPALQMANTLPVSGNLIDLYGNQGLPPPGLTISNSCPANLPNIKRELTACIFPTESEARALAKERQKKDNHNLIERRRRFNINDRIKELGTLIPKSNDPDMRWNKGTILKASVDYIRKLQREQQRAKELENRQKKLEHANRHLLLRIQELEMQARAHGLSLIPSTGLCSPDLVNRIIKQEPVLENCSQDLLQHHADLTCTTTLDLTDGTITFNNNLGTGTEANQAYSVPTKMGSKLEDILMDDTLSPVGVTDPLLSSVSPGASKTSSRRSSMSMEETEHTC
Nature of the data set: TRPM1 promoter luciferase signal decrease, dose response, MITF inhibitor project, cell-based, SK-MEL-5, cherry-picked, set 3 (AID 493073).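 Note: SK-MEL-5 melanoma cells with luciferase driven by the MITF target TRPM1 promoter.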 It counts as functional.

The nature of data set [23]: Luminescence Cell-Based Dose Retest to Confirm Inhibitors of Cancer Stem Cells. [Related pubchem assays (depositor defined):AID2717, AID2721]. The data set is classed as functional. The following applies: Homo sapiens.
Data set [24] is described as follows: Vero E6 cell cytotoxicity, dose response, cytotoxicity control for non-replicating M. tuberculosis project, secondary assay (AID 492998). The data set is classed as functional, VeroE6. The following applies: Vero C1008.
A short description of data set [25]: cells. It counts as functional.

Sequence of Peroxisome proliferator-activated receptor gamma/Nuclear receptor coactivator 1 (P37231 whole entry): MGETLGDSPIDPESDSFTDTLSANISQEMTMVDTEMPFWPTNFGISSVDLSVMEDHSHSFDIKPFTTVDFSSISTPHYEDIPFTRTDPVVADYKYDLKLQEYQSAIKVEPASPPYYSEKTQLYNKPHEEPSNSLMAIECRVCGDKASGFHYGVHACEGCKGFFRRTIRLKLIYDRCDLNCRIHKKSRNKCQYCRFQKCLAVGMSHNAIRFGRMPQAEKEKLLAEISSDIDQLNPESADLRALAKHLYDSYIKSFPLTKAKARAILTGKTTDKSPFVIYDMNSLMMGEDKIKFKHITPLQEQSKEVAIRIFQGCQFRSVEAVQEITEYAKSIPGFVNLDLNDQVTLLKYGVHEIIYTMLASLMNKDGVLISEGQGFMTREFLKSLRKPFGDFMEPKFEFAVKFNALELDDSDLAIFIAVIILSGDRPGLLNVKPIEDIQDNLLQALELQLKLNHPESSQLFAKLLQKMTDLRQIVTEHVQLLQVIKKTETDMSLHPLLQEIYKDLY
Sequence of Peroxisome proliferator-activated receptor gamma/Nuclear receptor coactivator 1 (Q15788 whole entry, further chain): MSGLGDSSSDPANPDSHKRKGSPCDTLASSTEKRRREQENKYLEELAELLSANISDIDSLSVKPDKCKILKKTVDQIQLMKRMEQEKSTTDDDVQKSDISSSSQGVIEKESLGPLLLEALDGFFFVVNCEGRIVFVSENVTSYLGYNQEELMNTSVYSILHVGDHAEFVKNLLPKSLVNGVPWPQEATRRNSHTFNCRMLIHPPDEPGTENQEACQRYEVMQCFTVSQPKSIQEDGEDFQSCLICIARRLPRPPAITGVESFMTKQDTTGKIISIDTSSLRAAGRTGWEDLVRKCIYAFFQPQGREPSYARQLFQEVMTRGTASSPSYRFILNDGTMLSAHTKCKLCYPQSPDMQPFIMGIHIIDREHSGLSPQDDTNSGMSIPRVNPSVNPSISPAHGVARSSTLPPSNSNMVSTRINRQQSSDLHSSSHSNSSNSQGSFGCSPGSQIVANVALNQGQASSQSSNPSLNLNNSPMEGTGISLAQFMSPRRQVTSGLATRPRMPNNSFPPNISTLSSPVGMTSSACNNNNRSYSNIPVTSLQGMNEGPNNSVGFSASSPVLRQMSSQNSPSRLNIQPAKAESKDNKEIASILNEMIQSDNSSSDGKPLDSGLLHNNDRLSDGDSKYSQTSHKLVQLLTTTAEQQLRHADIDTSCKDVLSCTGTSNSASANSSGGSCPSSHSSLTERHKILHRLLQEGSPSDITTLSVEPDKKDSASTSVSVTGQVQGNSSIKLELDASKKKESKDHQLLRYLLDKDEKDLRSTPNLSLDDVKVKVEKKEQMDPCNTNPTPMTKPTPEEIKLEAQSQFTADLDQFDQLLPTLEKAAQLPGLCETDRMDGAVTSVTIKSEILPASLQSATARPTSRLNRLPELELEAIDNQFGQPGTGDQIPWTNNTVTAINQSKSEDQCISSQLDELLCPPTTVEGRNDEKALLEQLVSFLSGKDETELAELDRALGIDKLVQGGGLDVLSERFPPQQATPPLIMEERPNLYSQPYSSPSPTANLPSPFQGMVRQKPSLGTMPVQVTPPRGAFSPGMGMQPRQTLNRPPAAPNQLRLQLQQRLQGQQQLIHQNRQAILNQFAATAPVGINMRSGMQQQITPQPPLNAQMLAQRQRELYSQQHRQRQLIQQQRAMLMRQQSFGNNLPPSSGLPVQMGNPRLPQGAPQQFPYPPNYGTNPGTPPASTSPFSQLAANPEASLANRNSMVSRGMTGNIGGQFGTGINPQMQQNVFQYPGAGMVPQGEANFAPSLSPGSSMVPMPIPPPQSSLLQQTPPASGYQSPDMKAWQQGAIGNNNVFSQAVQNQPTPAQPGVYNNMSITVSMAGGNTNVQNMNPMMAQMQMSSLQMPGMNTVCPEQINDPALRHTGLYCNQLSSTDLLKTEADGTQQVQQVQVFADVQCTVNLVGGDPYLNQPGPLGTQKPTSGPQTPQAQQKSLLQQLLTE
Sequence of Peroxisome proliferator-activated receptor gamma/Nuclear receptor coactivator 3 (P37231 whole entry): as the sequence (P37231 whole entry) above
Sequence of Peroxisome proliferator-activated receptor gamma/Nuclear receptor coactivator 3 (Q9Y6Q9 whole entry, further chain): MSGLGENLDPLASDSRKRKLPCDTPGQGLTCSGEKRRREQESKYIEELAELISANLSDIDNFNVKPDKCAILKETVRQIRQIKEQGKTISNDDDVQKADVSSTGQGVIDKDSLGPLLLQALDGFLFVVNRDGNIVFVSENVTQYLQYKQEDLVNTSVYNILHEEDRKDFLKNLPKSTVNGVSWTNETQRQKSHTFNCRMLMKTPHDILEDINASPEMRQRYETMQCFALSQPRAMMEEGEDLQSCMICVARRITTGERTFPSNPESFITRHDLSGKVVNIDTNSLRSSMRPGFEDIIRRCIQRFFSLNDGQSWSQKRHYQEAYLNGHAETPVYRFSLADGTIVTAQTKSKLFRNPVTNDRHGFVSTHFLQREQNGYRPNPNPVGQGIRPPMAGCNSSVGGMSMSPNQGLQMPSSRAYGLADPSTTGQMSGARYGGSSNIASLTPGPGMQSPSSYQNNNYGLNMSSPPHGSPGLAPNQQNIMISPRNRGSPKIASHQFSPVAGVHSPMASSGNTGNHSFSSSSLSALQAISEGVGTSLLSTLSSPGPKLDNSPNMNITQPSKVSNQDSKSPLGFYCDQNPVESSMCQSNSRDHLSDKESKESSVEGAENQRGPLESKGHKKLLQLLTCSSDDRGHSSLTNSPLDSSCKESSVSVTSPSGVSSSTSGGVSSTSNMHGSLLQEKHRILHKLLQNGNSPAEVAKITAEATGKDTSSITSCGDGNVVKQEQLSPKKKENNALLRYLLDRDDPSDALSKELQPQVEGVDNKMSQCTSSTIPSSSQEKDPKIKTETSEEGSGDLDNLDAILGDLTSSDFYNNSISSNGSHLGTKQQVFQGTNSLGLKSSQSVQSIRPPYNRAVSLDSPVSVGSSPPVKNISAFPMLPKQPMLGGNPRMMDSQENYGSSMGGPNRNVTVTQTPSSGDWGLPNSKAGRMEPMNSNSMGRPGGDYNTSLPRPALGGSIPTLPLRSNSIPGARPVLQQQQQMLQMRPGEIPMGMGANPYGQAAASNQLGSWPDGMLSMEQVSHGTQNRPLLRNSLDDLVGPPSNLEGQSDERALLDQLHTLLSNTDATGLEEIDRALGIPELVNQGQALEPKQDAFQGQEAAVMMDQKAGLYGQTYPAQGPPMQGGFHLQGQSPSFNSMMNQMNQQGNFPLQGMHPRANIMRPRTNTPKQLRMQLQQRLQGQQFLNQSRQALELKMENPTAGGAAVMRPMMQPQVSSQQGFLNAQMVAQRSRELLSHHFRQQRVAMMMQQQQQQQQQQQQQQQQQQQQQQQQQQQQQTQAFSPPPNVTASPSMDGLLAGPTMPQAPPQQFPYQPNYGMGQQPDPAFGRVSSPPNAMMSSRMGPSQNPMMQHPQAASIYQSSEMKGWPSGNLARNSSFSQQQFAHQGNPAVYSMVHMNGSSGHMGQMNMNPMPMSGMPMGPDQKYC
Sequence of Cytochrome P450 2C9 (P11712 whole entry): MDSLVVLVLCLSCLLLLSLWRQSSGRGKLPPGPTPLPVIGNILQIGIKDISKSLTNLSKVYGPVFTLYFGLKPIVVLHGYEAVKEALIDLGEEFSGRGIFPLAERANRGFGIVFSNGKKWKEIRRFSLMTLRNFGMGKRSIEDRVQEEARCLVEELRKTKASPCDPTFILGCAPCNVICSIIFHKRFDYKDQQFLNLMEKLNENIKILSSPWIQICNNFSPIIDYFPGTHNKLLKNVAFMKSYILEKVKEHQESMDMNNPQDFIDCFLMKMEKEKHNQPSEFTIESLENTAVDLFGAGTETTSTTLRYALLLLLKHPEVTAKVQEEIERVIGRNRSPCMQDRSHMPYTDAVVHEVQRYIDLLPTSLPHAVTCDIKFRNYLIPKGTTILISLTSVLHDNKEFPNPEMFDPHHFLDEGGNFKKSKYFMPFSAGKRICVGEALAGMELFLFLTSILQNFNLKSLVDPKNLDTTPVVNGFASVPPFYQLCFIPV

Broadly, the AC50 is the concentration giving half of the maximal activity seen. In the case of `O=C(NCC1CCCO1)c1cc(-c2ccc(Cl)cc2Cl)on1` (centres undefined), the AC50 result in data set [1] was “inconclusive”; in data set [2], > 11 µM (active); in data set [3] it was > 11 µM (active).

Regarding `C/C(=N\Nc1ccccn1)c1ccc(C(C)C)cc1`, the half-maximal activity concentration (AC50) in data set [4] is 46.7 µM (active).

Broadly, the IC50 is the point on the concentration scale where inhibition reaches its midpoint. As to `Clc1ccccc1/C=C/c1nc(-c2cccnc2)no1`, the IC50 in data set [5] was > 100 µM (inactive). Moreover, the AC50 in data set [4] was 54.3 µM (active).

By EC50 is commonly meant the concentration giving half of the maximal effect. For the compound `COc1ccc2c(-c3ccccc3)cc(SCC(=O)NC(N)=O)nc2c1`, the EC50 was > 54.7 µM (inactive) in data set [6]; > 55.9 µM (inactive) in data set [7]; > 79.4 µM (not active) in data set [9]; > 79.4 µM (not active) in data set [10]; > 54.7 µM (inactive) in [11]; > 79.4 µM (not active) in [12]. Further, the IC50 in data set [8] is 22.3 µM (inactive).

`CC(=O)/N=C(\N)Nc1nc2cc(C)ccc2o1`: the AC50 in data set [2] and in data set [3] was > 35 µM (active) each time.

In the case of `CC(C)C(=O)Nc1ccc(Nc2ccccc2)cc1`, in data set [13], the half-maximal activity concentration (AC50) was 29.9 µM (active). In addition, the IC50 in data set [14] is 51.1 µM (active).

Regarding `O=C(NC1CCCC1)c1cnn2c(C(F)(F)F)cc(-c3ccc4c(c3)OCO4)nc12`, the EC50 in data set [6] was > 54.7 µM (inactive); in data set [7], > 55.9 µM (inactive); in [11], > 54.7 µM (inactive). In addition, the IC50 in [8] is > 89.2 µM (inactive).

`COc1ccc(N/C=C/C(=O)c2cc(OC)c(OC)c(OC)c2)cc1`: the half-maximal effective concentration (EC50) in data set [15] was 0.666 µM (active); in data set [16] it was 0.603 µM (active); in [17], 0.133 µM (active); in data set [18], 20.5 µM (inconclusive); in data set [19], 0.441 µM (inconclusive).

Turning to `Cc1ccc2c(Cl)c(C(=O)Nc3cccnc3)sc2c1`, in [4], the half-maximal activity concentration (AC50) is 46.7 µM (active).

Regarding `Cc1ccc(/C=N/NC(=O)c2cc(-c3ccncc3)nc3ccccc23)o1`, the half-maximal effective concentration (EC50) in data set [15] was 2.77 µM (active); in data set [16], 2.27 µM (active); in data set [17] it was 1.41 µM (active); in data set [18], 37.5 µM (inconclusive); in data set [19], 25.4 µM (active).

As a reminder, the CC50 is the concentration at which the toxic effect on the cells reaches its halfway point. Take `CC1CCCC(NCC(O)COC(c2ccc(F)cc2)c2ccc(F)cc2)C1C` (centres undefined): the CC50 is 15.8 µM (active) in data set [20], 16.1 µM (active) in data set [21] and > 20 µM (active) in data set [24]. For the same compound, the AC50 in data set [2] was 20.2 µM (active); in data set [22] it was 10.8 µM (active); in data set [23], 6.35 µM (active). The IC50 in data set [25] was 11.4 µM (active).
